Columns and labels:
Type in all cases: functional
OVCAR-3 = assay: Growth inhibition of human OVCAR3 cells assessed as cell growth at 10 uM incubated for 48 hrs by sulforhodamine B assay relative to control; conditions: OVCAR-3, 48 h, read-out: Activity
U-251 = assay: Growth inhibition of human U251 cells assessed as cell growth at 10 uM incubated for 48 hrs by sulforhodamine B assay relative to control; conditions: U-251, 48 h, read-out: Activity
HOP-92 = assay: Growth inhibition of human HOP92 cells assessed as cell growth at 10 uM incubated for 48 hrs by sulforhodamine B assay relative to control; conditions: HOP-92, 48 h, read-out: Activity
NCI-H522 = assay: Growth inhibition of human NCI-H522 cells assessed as cell growth at 10 uM incubated for 48 hrs by sulforhodamine B assay relative to control; conditions: NCI-H522, 48 h, read-out: Activity
SK-MEL-28 = assay: Growth inhibition of human SK-MEL-28 cells assessed as cell growth at 10 uM incubated for 48 hrs by sulforhodamine B assay relative to control; conditions: SK-MEL-28, 48 h, read-out: Activity
KM12 = assay: Growth inhibition of human KM12 cells assessed as cell growth at 10 uM incubated for 48 hrs by sulforhodamine B assay relative to control; conditions: KM12, 48 h, read-out: Activity
BT-549 = assay: Growth inhibition of human BT549 cells assessed as cell growth at 10 uM incubated for 48 hrs by sulforhodamine B assay relative to control; conditions: BT-549, 48 h, read-out: Activity
SF-268 = assay: Growth inhibition of human SF268 cells assessed as cell growth at 10 uM incubated for 48 hrs by sulforhodamine B assay relative to control; conditions: SF-268, 48 h, read-out: Activity
NCI-H460 = assay: Growth inhibition of human NCI-H460 cells assessed as cell growth at 10 uM incubated for 48 hrs by sulforhodamine B assay relative to control; conditions: NCI-H460, 48 h, read-out: Activity
CCRF-CEM = assay: Growth inhibition of human CCRF-CEM cells assessed as cell growth at 10 uM incubated for 48 hrs by sulforhodamine B assay relative to control; conditions: read-out: Activity
MDA-MB-231 = assay: Growth inhibition of human MDA-MB-231 cells assessed as cell growth at 10 uM incubated for 48 hrs by sulforhodamine B assay relative to control; conditions: MDA-MB-231, 48 h, read-out: Activity
OVCAR-4 = assay: Growth inhibition of human OVCAR4 cells assessed as cell growth at 10 uM incubated for 48 hrs by sulforhodamine B assay relative to control; conditions: OVCAR-4, 48 h, read-out: Activity
NCI-H226 = assay: Growth inhibition of human NCI-H226 cells assessed as cell growth at 10 uM incubated for 48 hrs by sulforhodamine B assay relative to control; conditions: NCI-H226, 48 h, read-out: Activity
HCT-15 = assay: Growth inhibition of human HCT15 cells assessed as cell growth at 10 uM incubated for 48 hrs by sulforhodamine B assay relative to control; conditions: HCT-15, 48 h, read-out: Activity
T47D = assay: Growth inhibition of human T47D cells assessed as cell growth at 10 uM incubated for 48 hrs by sulforhodamine B assay relative to control; conditions: read-out: Activity
PC-3 = assay: Growth inhibition of human PC3 cells assessed as cell growth at 10 uM incubated for 48 hrs by sulforhodamine B assay relative to control; conditions: PC-3, 48 h, read-out: Activity
MDA-MB-468 = assay: Growth inhibition of human MDA-MB-468 cells assessed as cell growth at 10 uM incubated for 48 hrs by sulforhodamine B assay relative to control; conditions: MDA-MB-468, 48 h, read-out: Activity
TK-10 = assay: Growth inhibition of human TK10 cells assessed as cell growth at 10 uM incubated for 48 hrs by sulforhodamine B assay relative to control; conditions: TK-10, 48 h, read-out: Activity
COLO 205 = assay: Growth inhibition of human COLO205 cells assessed as cell growth at 10 uM incubated for 48 hrs by sulforhodamine B assay relative to control; conditions: COLO 205, 48 h, read-out: Activity
SNB-75 = assay: Growth inhibition of human SNB75 cells assessed as cell growth at 10 uM incubated for 48 hrs by sulforhodamine B assay relative to control; conditions: SNB-75, 48 h, read-out: Activity
DU-145 = assay: Growth inhibition of human DU145 cells assessed as cell growth at 10 uM incubated for 48 hrs by sulforhodamine B assay relative to control; conditions: DU-145, 48 h, read-out: Activity
SF-539 = assay: Growth inhibition of human SF539 cells assessed as cell growth at 10 uM incubated for 48 hrs by sulforhodamine B assay relative to control; conditions: SF-539, 48 h, read-out: Activity
786-0 = assay: Growth inhibition of human 786-0 cells assessed as cell growth at 10 uM incubated for 48 hrs by sulforhodamine B assay relative to control; conditions: 786-0, 48 h, read-out: Activity
Malme-3M = assay: Growth inhibition of human MALME-3M cells assessed as cell growth at 10 uM incubated for 48 hrs by sulforhodamine B assay relative to control; conditions: read-out: Activity
HOP-62 = assay: Growth inhibition of human HOP62 cells assessed as cell growth at 10 uM incubated for 48 hrs by sulforhodamine B assay relative to control; conditions: HOP-62, 48 h, read-out: Activity
LOX IMVI = assay: Growth inhibition of human LOXIMVI cells assessed as cell growth at 10 uM incubated for 48 hrs by sulforhodamine B assay relative to control; conditions: read-out: Activity

| SMILES | growth at 10 µM (OVCAR-3) [%] | growth at 10 µM (U-251) [%] | growth at 10 µM (HOP-92) [%] | growth at 10 µM (NCI-H522) [%] | growth at 10 µM (SK-MEL-28) [%] | growth at 10 µM (KM12) [%] | growth at 10 µM (BT-549) [%] | growth at 10 µM (SF-268) [%] | growth at 10 µM (NCI-H460) [%] | growth at 10 µM (MDA-MB-231) [%] | growth at 10 µM (OVCAR-4) [%] | growth at 10 µM (NCI-H226) [%] | growth at 10 µM (T47D) [%] | growth at 10 µM (PC-3) [%] | growth at 10 µM (MDA-MB-468) [%] | growth at 10 µM (TK-10) [%] | growth at 10 µM (COLO 205) [%] | growth at 10 µM (SNB-75) [%] | growth at 10 µM (DU-145) [%] | growth at 10 µM (SF-539) [%] | other results |
| --- | --- | --- | --- | --- | --- | --- | --- | --- | --- | --- | --- | --- | --- | --- | --- | --- | --- | --- | --- | --- | --- |
| CCCNC(=O)c1c(C)oc2ncnc(Nc3cccc(Cl)c3)c12 | 106 | 90.9 | 57.2 | 54.9 | 112 | 94.6 | 102 | 95.5 | 107 | 88.2 | 101 | 90 | 53.5 | 81.9 | 81.7 | 94.1 | 104 | 94.6 | 90 | 99.1 | growth at 10 µM (CCRF-CEM): 93.9%; growth at 10 µM (HCT-15): 101%; growth at 10 µM (786-0): 105%; growth at 10 µM (Malme-3M): 121%; growth at 10 µM (HOP-62): 87.7%; growth at 10 µM (LOX IMVI): 96.4% |
| Cc1oc2ncnc(Nc3cccc(F)c3)c2c1C(=O)O | 102 | 106 | 89.3 | 93.9 | 103 | 102 | 93.9 | 96.3 | 104 | 85 | 101 | 109 | 95.6 | 108 | 104 | 105 | 109 | 85.8 | 107 | 92.5 | growth at 10 µM (CCRF-CEM): 110%; growth at 10 µM (HCT-15): 101%; growth at 10 µM (786-0): 92%; growth at 10 µM (Malme-3M): 107%; growth at 10 µM (HOP-62): 98.4%; growth at 10 µM (LOX IMVI): 98% |
| Cc1oc2ncnc(Nc3cccc(Cl)c3)c2c1CO | 102 | 92.3 | 90.5 | 89.8 | 106 | 91.4 | 81.9 | 92.9 | 94 | 76.5 | 92.5 | 80.6 | 78.8 | 71.3 | 69.1 | 65.2 | 93.9 | 86.5 | 86.2 | 91.6 | growth at 10 µM (CCRF-CEM): 100%; growth at 10 µM (HCT-15): 67.3%; growth at 10 µM (786-0): 78.3%; growth at 10 µM (Malme-3M): 88.1%; growth at 10 µM (HOP-62): 89%; growth at 10 µM (LOX IMVI): 98.4% |
| CCOC(=O)c1c(C)oc2ncnc(Nc3ccc(F)c(Cl)c3)c12 | 116 | 91.8 | 72.1 | 74.6 | 110 | 104 | 101 | 97.6 | 106 | 101 | 118 | 94.6 | 83.8 | 85.6 | 112 | 114 | 110 | 113 | 103 | 104 | growth at 10 µM (HCT-15): 112%; growth at 10 µM (786-0): 104%; growth at 10 µM (Malme-3M): 114%; growth at 10 µM (HOP-62): 101%; growth at 10 µM (LOX IMVI): 103% |
| CCOC(=O)c1c(C)oc2ncnc(Nc3ccc(F)cc3)c12 | 104 | 98 | 90.8 | 92.9 | 97.5 | 97.6 | 98.5 | 98.5 | 100 | 86.8 | 99.1 | 100 | 99.6 | 111 | 103 | 96.5 | 102 | 94.7 | 101 | 93.6 | growth at 10 µM (CCRF-CEM): 31.3%; growth at 10 µM (786-0): 93.1%; growth at 10 µM (Malme-3M): 95.4%; growth at 10 µM (HOP-62): 101%; growth at 10 µM (LOX IMVI): 99.5% |
| Cc1cccc(Nc2ncnc3oc(C)c(C(=O)NCCO)c23)c1 | 108 | 105 | 94.1 | 91.8 | 102 | 93.9 | 90.7 | 98.4 | 102 | 84.1 | 95 | 93.3 | 84.3 | 96.1 | 87 | 102 | 99 | 110 | 103 | 92.5 | growth at 10 µM (CCRF-CEM): 74%; growth at 10 µM (HCT-15): 93.7%; growth at 10 µM (786-0): 99%; growth at 10 µM (Malme-3M): 109%; growth at 10 µM (HOP-62): 98.2%; growth at 10 µM (LOX IMVI): 93% |
| Cc1cccc(Nc2ncnc3oc(C)c(C(=O)NCCN4CCOCC4)c23)c1 | 102 | 105 | 97.6 | 89.9 | 100 | 94.6 | 90.7 | 93.3 | 105 | 81.8 | 110 | 94.9 | 106 | 101 | 89.4 | 98.7 | 101 | 82.4 | 99.4 | 95.4 | growth at 10 µM (CCRF-CEM): 99.7%; growth at 10 µM (HCT-15): 94.9%; growth at 10 µM (786-0): 92.4%; growth at 10 µM (Malme-3M): 97.2%; growth at 10 µM (HOP-62): 93.1%; growth at 10 µM (LOX IMVI): 93.2% |
| Cc1oc2ncnc(Nc3cccc(F)c3)c2c1C(=O)NCCO | 107 | 104 | 101 | 88.4 | 104 | 97.9 | 96.3 | 101 | 105 | 91.2 | 108 | 106 | 95.4 | 111 | 106 | 90.1 | 111 | 92.2 | 105 | 90.9 | growth at 10 µM (CCRF-CEM): 117%; growth at 10 µM (786-0): 93%; growth at 10 µM (Malme-3M): 118%; growth at 10 µM (HOP-62): 97.4%; growth at 10 µM (LOX IMVI): 100% |

Reference: ChEMBL document CHEMBL4251615, “Discovery of anilino-furo[2,3-d]pyrimidine derivatives as dual inhibitors of EGFR/HER2 tyrosine kinase and their anticancer activity” (Eur J Med Chem, 2018)
